This is an account of results in publication PMC4850295, “Using a Genetically Encoded Sensor to Identify Inhibitors of Toxoplasma gondii Ca^2+ Signaling” (The Journal of Biological Chemistry, 2016).

Values joined by “and” are separate entries in the source; they are usually repeats but may differ in a detail not shown here. Identical values can stand only once.

For the first assay, the system named is T1, GCaMP5-expressing T. gondii.
T1 construct: whole extracellular parasites expressing GCaMP5 Ca2+ sensor
Set-up: species or system GCaMP5-expressing Toxoplasma gondii, extracellular; GCaMP5 fluorescence (cytosolic Ca2+) after 100 uM zaprinast in compound-pretreated extracellular parasites, background-subtracted, relative to zaprinast alone. Conditions: 100 uM zaprinast stimulation, 10 min pretreatment, mean of two replicates, 0.23 h, 10 µM. A digest of the protocol: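 Read-out is GCaMP5 calcium fluorescence (ex 485/em 525 nm) taken 4 min after 100 μM zaprinast at 37 °C, following 10 min compound pretreatment at 10 μM in duplicate biological replicates. Values are basal-subtracted fold change versus zaprinast-only controls; parasites held extracellular in Ringer's solution.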
For the molecule `Nc1ncnc2occ(-c3ccc(NC(=O)Nc4cc(C(F)(F)F)ccc4F)cc3)c12` [SB-707548-A], the “fold change in fluorescence relative to zaprinast alone” value is 1.011 and 0.2784.

Still in this assay, the particulars now being: 100 uM zaprinast stimulation; 10 min pretreatment; mean of two replicates; 0.23 h.
With `CC(C)c1nc(-c2cccc(NS(=O)(=O)c3c(F)cccc3F)c2F)c(-c2ccnc(Nc3ccc(N4CCOCC4)nc3)n2)s1` [GSK2008607A], the “fold change in fluorescence relative to zaprinast alone” value is 1.572.

Take `Cc1ccc(C)c(NC(=O)NCCNc2ccnc(Nc3ccc(F)cc3)n2)c1` [GSK1379878A]: the “fold change in fluorescence relative to zaprinast alone” value worked out at 1.583.

In the case of `COc1cc2ncn(-c3cc(O[C@@H](C)c4ccccc4Cl)c(C(N)=O)s3)c2cc1OC` [GSK237700A], the “fold change in fluorescence relative to zaprinast alone” value stood at 1.147.

For the molecule `COc1cc(Nc2ncc(-c3ccccc3)o2)cc(OC)c1OC` [GW627512B], the “fold change in fluorescence relative to zaprinast alone” value turned out to be 0.9208.

Consider `COc1cccc(-n2ncc3c(N/N=C/c4cccc(F)c4)ncnc32)c1` [GW817394X], for which the “fold change in fluorescence relative to zaprinast alone” value turned out to be 1.201.

For `Fc1ccc(-c2ncn(C3CCNCC3)c2-c2ccnc(Oc3ccc(-c4ccccc4)cc3)n2)cc1` [SB-245391], the “fold change in fluorescence relative to zaprinast alone” value was 1.215.

In the case of `COc1ccc(Nc2ncc(C#N)c(Nc3ccccc3C(N)=O)n2)cc1N1CCN(C)CC1` [GSK1558669A], the “fold change in fluorescence relative to zaprinast alone” value came to 1.412.

Turning to `CC(C)(C)c1ccc2nccc(Nc3cccc(O)c3)c2c1` [GW856795X], the “fold change in fluorescence relative to zaprinast alone” value is recorded as 0.1562.

Regarding `O=C1NC(=O)C(N2CCc3ccccc32)=C1c1cccc(Cl)c1` [SB-408010], the “fold change in fluorescence relative to zaprinast alone” value amounted to 0.7986.

`CCn1c(-c2nonc2N)nc2c(C#CC(C)(C)O)nc(OCCN)cc21` [GSK902056A]: the “fold change in fluorescence relative to zaprinast alone” value is on record as 1.153.

`Cc1c(O)cccc1Nc1ccnc2ccc(C(F)(F)F)cc12` [GW466413A]: the “fold change in fluorescence relative to zaprinast alone” value is reported as 1.009.

`CN(C(=O)c1ccc(-c2cc(-c3cn[nH]c3-c3ccccn3)ccn2)cc1)C1CCOCC1` [GW810083X]: the “fold change in fluorescence relative to zaprinast alone” value is 1.114.

Take `CCn1cnc2c(N)ncnc21` [GW345098X]: the “fold change in fluorescence relative to zaprinast alone” value is recorded as 1.056.

Take `CS(=O)(=O)CCN(CC#N)Cc1ccc(-c2ccc3ncnc(Nc4ccc(OCc5cccc(F)c5)c(Cl)c4)c3c2)o1` [GW616030X]: the “fold change in fluorescence relative to zaprinast alone” value was found to be 1.169.

Take `Clc1ccc(-c2nn3ncccc3c2-c2ccnc(Nc3ccc4c(c3)OCCO4)n2)cc1` [GW829116X]: the “fold change in fluorescence relative to zaprinast alone” value was 0.6156.

Turning to `NC(=O)c1cccc(Nc2nccc(Nc3cccc(F)c3)n2)c1` [GW759710A], the “fold change in fluorescence relative to zaprinast alone” value stood at 1.166.

In the case of `CCOc1ccc2c(-c3ccnc(Nc4cc(OC)cc(C(F)(F)F)c4)n3)cnn2n1` [GW807982X], the “fold change in fluorescence relative to zaprinast alone” value was 0.9255.

Regarding `ON=C1CCc2cc(-c3nc(C4CCNCC4)[nH]c3-c3ccncc3)ccc21` [SB-614067-R], the “fold change in fluorescence relative to zaprinast alone” value was 1.048.

Consider `COc1ccc(Nc2nccc(N3CCC(NC(=O)C(C)c4ccc(Cl)cc4)C3)n2)cc1` (stereo not shown) [GSK1379735A], for which the “fold change in fluorescence relative to zaprinast alone” value was 0.6825.

With `c1ccc(Cn2cnc3cc(Nc4ncnc5ccccc45)ccc32)cc1` [GW272142A], the “fold change in fluorescence relative to zaprinast alone” value is on record as 1.177.

With `CCn1c(-c2nonc2N)nc2c(C#CC(C)(C)O)nc(OC[C@@H](N)c3ccccc3)cc21` [GSK938890A], the “fold change in fluorescence relative to zaprinast alone” value came to 1.022.

Consider `CCn1cc(-c2ccnc3[nH]ccc23)c(-c2cccc(NC(=O)Nc3ccc(OCc4ccccc4)cc3)c2)n1` [GSK718429A], for which the “fold change in fluorescence relative to zaprinast alone” value worked out at 1.268.

Take `NS(=O)(=O)c1ccc(-c2cc3ccncc3cc2OCc2ccccc2)cc1` [GSK953913A]: the “fold change in fluorescence relative to zaprinast alone” value turned out to be 1.131.

Turning to `Cn1cncc1-c1cc2c(Nc3ccc(OCc4ccccc4)cc3)ncnc2cn1` [GW281179X], the “fold change in fluorescence relative to zaprinast alone” value is 1.036.

Consider `CN(C)Cc1ccc(-c2ccc3c(Nc4ccc(Oc5ccccn5)cc4)ccnc3c2)o1` [GW567148X], for which the “fold change in fluorescence relative to zaprinast alone” value worked out at 1.129.

As to `CCN1CCC(CC(=O)Nc2n[nH]c3nnc(-c4cccc(F)c4F)cc23)CC1` [SB-698596-AC], the “fold change in fluorescence relative to zaprinast alone” value worked out at 1.047.

Turning to `COc1cc(Nc2nccc(N3CCC(NS(=O)(=O)c4ccc(NC(C)=O)cc4)CC3)n2)cc(OC)c1OC` [GSK1379825A], the “fold change in fluorescence relative to zaprinast alone” value came out at 1.055.

As to `c1ccc(-c2[nH]ncc2-c2ccnc(-c3ccc(CNC4CCOCC4)cc3)c2)nc1` [GW709213X], the “fold change in fluorescence relative to zaprinast alone” value is reported as 1.08.

Take `COc1cc2c(cc1Nc1nc(Nc3ccsc3C(N)=O)c3cc[nH]c3n1)N(C(=O)CN(C)C)CCC2` [GSK2110236A]: the “fold change in fluorescence relative to zaprinast alone” value was 1.302.

Regarding `CC(=O)Nc1ccc(COc2ccc(Nc3ccnc4cc(-c5ccccn5)ccc34)cc2)cc1` [GW440148A], the “fold change in fluorescence relative to zaprinast alone” value was found to be 1.657.

`CN1CCN(Cc2ccc(NC(=O)Nc3ccc(N(C)c4ccnc(Nc5ccc(CS(C)(=O)=O)cc5)n4)cc3)cc2)CC1` [GW827654A]: the “fold change in fluorescence relative to zaprinast alone” value is reported as 1.248.

In the case of `CCCNC(=O)Nc1ccc(N(C)c2ccnc(NC3CC3)n2)cc1` [GW818933X], the “fold change in fluorescence relative to zaprinast alone” value worked out at 0.4908.

Consider `COc1cc2ncn(-c3cc(OCC4CCCCC4)c(C(N)=O)s3)c2cc1OC` [GSK204559A], for which the “fold change in fluorescence relative to zaprinast alone” value is listed as 1.336.

With `CCCN1CCC=C(c2ccc(Nc3nc(Nc4ccccc4C(N)=O)c4cc[nH]c4n3)c(C)c2)C1` [GSK994854A], the “fold change in fluorescence relative to zaprinast alone” value came to 1.737.

As for `CN1CCC(n2cnc(-c3ccc(F)cc3)c2-c2ccnc(Nc3ccccc3)n2)CC1` [SB-236687], the “fold change in fluorescence relative to zaprinast alone” value was 1.382.

As for `Fc1ccc(-c2nn3cccc(F)c3c2-c2ccncc2)cc1` [GW475620X], the “fold change in fluorescence relative to zaprinast alone” value was 0.2984.

For `Cc1nnc(-c2ccc(C)c(-c3ccc(C(=O)NCc4ccc(Cl)cc4)cc3)c2)o1` [GW708893X], the “fold change in fluorescence relative to zaprinast alone” value came out at 1.038.

On to `COc1ccc(-c2ccc3c(NC(=O)C4CC4)n[nH]c3n2)cc1` [SB-711237], for which the “fold change in fluorescence relative to zaprinast alone” value is listed as 1.177.

Regarding `COc1ccc(Nc2nccc(N3CCC(NC(=O)Nc4ccc5c(c4)OCO5)C3)n2)cc1` (stereo not shown) [GSK1379745A], the “fold change in fluorescence relative to zaprinast alone” value is listed as 1.223.

In the case of `Nc1nc(N)c2[nH]c(-c3ccccc3)nc2n1` [SKF-12778], the “fold change in fluorescence relative to zaprinast alone” value is reported as 1.022.

As for `COc1cc(Nc2nccc(N3CCC(NC(=O)c4cc5ccccc5s4)C3)n2)cc(OC)c1OC` (stereo not shown) [GSK1379760A], the “fold change in fluorescence relative to zaprinast alone” value is on record as 1.279.

With `Cc1ccc2c(-c3ccncc3)c(-c3ccc(F)cc3)nn2c1` [GW461484A], the “fold change in fluorescence relative to zaprinast alone” value worked out at 0.2133.

In the case of `Cc1cccc(-c2nc(Nc3ccncc3)c3sccc3n2)n1` [GW869641X], the “fold change in fluorescence relative to zaprinast alone” value was found to be 1.179.

Turning to `C[C@@H]1CC[C@H](C(=O)NC2CCCCC2)CN1c1cc(-c2ccc3c(N)n[nH]c3c2)nc(N)n1` [GSK2291363A], the “fold change in fluorescence relative to zaprinast alone” value is on record as 1.384.

For `N#Cc1ccc(CCNc2nccc(-c3cccc(CN4CCNCC4)c3)n2)cc1` [GSK2137462A], the “fold change in fluorescence relative to zaprinast alone” value is on record as 0.3754.

`Cc1ccc(-c2nc(Nc3ccncc3)c3ccccc3n2)s1` [GSK189015A]: the “fold change in fluorescence relative to zaprinast alone” value is reported as 0.1154.

Take `CC1=C(C(=O)Nc2ccc3[nH]ncc3c2)C(c2ccc(F)cc2)N=C(c2ccc(C(F)(F)F)nc2)N1` (stereo not shown) [GSK317354A]: the “fold change in fluorescence relative to zaprinast alone” value amounted to 1.324.

Consider `CCc1nccc2c1nc(-c1nonc1N)n2CC` [SB-751148], for which the “fold change in fluorescence relative to zaprinast alone” value is on record as 1.115.

Take `COc1cc(N2CCN(C(C)C)CC2)ccc1Nc1nc(Nc2ccc(F)cc2C(N)=O)c2cc[nH]c2n1` [GSK1220512A]: the “fold change in fluorescence relative to zaprinast alone” value is listed as 1.812.

For the molecule `COc1cccc(-c2nc(-c3ccccc3)[nH]c2-c2ccncc2)c1` [SB-610250], the “fold change in fluorescence relative to zaprinast alone” value came out at 0.7579.

Turning to `O=C(Nc1cccc(-c2nn3ncccc3c2-c2ccnc(Nc3cccnc3)n2)c1)c1c(F)cccc1F` [GSK312879A], the “fold change in fluorescence relative to zaprinast alone” value amounted to 1.048.

For the molecule `CN(c1ccc(NC(=O)Nc2cccc(Cl)c2)cc1)c1ccnc(N)n1` [GW830707A], the “fold change in fluorescence relative to zaprinast alone” value came out at 0.7635.

In the case of `COc1cc2ncnc(Nc3ccc4nc(-c5ccccc5)[nH]c4c3)c2cc1OC` [GW282450A], the “fold change in fluorescence relative to zaprinast alone” value was found to be 0.9024.

With `FC(F)(F)c1ccc(/C=C/c2cncnc2Nc2ccc3nc(Cc4ccccc4)[nH]c3c2)cc1` [GW709199X], the “fold change in fluorescence relative to zaprinast alone” value is 1.132.

As to `Cc1cccc(Nc2nc(N[C@H]3CCNC3)ncc2C(N)=O)c1` [GSK2197149A], the “fold change in fluorescence relative to zaprinast alone” value was determined as 1.037.

As for `CC(C)N1CCC(n2cnc(-c3ccc(F)cc3)c2-c2ccnc(N)n2)CC1` [SB-223132], the “fold change in fluorescence relative to zaprinast alone” value is on record as 0.4026.

`Cc1ccc(-n2nc(C(C)(C)C)cc2NC(=O)Nc2ccc(OCCN3CCOCC3)c3ccccc23)cc1` [GW839464X]: the “fold change in fluorescence relative to zaprinast alone” value worked out at 1.059.

Turning to `COc1cccc(NC(=O)NC2CCN(c3ccnc(Nc4cc(OC)c(OC)c(OC)c4)n3)C2)c1` (stereo not shown) [GSK1379763A], the “fold change in fluorescence relative to zaprinast alone” value is 1.269.

Take `CNC(=O)c1ccccc1Nc1nc(Nc2cccc(CS(C)(=O)=O)c2)ncc1C` [GSK1520489A]: the “fold change in fluorescence relative to zaprinast alone” value is on record as 1.293.

Regarding `c1ccc(-c2ccc3c(Nc4ccc5[nH]ccc5c4)ccnc3c2)nc1` [GW440138A], the “fold change in fluorescence relative to zaprinast alone” value came to 1.081.
